Experimental data: US20230365530A1, “QUINAZOLINE-2,4-DIAMINE DERIVATIVE AND PHARMACEUTICAL COMPOSITION FOR PREVENTING OR TREATING CANCER COMPRISING SAME AS ACTIVE INGREDIENT” (THE ASEAN FOUNDATION, priority 2020, published 2023)
pIC50: −log10 of the molar value.

Tests used:
[1] = test system: pancreatic cancer cell line Miapaca 2; assay: Cancer cell growth inhibition test, CellTiter-glo; assay type: cell-based; conditions: Homo sapiens, MIA PaCa-2, Miapaca 2 cells, 72 hours
Procedure: In order to confirm the effect of reducing cell viability by inhibiting EHMT2 by the compounds of Examples in cells, the effect of inhibiting cancer cell growth was analyzed using CellTiter-glo™ analysis (Promega, cat. G7573) method. Specifically, the amount of ATP in living cells was measured and IC50 values were calculated using software to compare the inhibitory effect of the compounds of Examples on cell viability. First, the pancreatic cancer cell line Miapaca 2 was placed in a 96-well cell culture plate at the density of 1×10^3 cells/well and cultured overnight, and then each well of the plate was treated with 1 nM to 100 μM of the compounds of Examples 1 to 89 at each concentration for 72 hours (The final concentration of DMSO in each well was 0.5% or less). CellTiter-glo 2.0 reagent was mixed with a medium at 20% of the amount of the medium, reacted at room temperature for 10 minutes, and then 80 μL of the mixture was transferred to each well of a 96-well plate, followed by measuring the degree of luminescence.

[2] = target: EHMT2 (Euchromatic histone-lysine N-methyltransferase 2) (Homo sapiens (Human), UniProt Q96KQ7); assay: EHMT2 enzyme inhibition, LANCE TR-FRET; assay type: biochemical; conditions: histone H3 peptide, 1 hour at room temperature
Procedure: In order to analyze the enzyme inhibitory efficacy of the compounds of Examples 1 to 89, EHMT2 (Euchromatic histone-lysine N-methyltransferase 2) enzyme activity was measured using the LANCE TR-FRET™ analysis method of Perkin Elmer. When the EHMT2 enzyme is activated, the 9th lysine residue of the biotinylated-histone peptide is methylated and the EU-conjugated antibody is combined to the methylated histone peptide. Then, when the complex is irradiated with light of excitation wavelength, the complex emits light having a wavelength of 665 nm through FRET phenomenon. Accordingly, fluorescence was measured, and IC50 values were calculated through a software to evaluate the EHMT2 enzyme activity inhibitory effect of the compounds of Examples 1 to 89.
Specific experimental methods are as follows. First, the compounds of Examples 1 to 89 of 1 nM to 100 μM (4× conc.) were put into a 384 well plate (25 μL/well), and 2 μM EEMT2/G9a enzyme (4× conc.) was put into the 384 well plate (25 μL/well). The plate was then centrifuged at 1,500 rpm for 5 seconds after sealing the plate with plate sealing foil. After incubating the EHMT2/G9a enzyme, SAM, and the compounds of Examples above at room temperature for 10 minutes, 2 μM histone H3 peptide (4× conc.) was added to the 384-well plate (25 μL/well). After sealing the plate with plate sealing foil and centrifuging at 1,500 rpm for 5 seconds, an enzymatic reaction was performed at room temperature for 1 hour. Upon completion of the enzyme reaction, 5 μL each of 200 nM Ulight™-Streptavidin (4× conc.) and 8 nM Eu-antibody (4× conc.) was added to each well of the plate. The plate was sealed with plate sealing foil, centrifuged at 1,500 rpm for 5 seconds and reacted at room temperature for 1 hour. The signal values were measured with Envision (Ex 320 nm, Em 665 nm), and all background values obtained by reacting without enzyme were deleted from the measured raw data values. Then, the EHMT2 enzyme activity inhibitory effect of the compounds of Examples 1 to 89 was converted into % values, and compared with the EHMT2 activity when treated with 4% DMSO vehicle (=0 nM compound) as 100%.

Chain of EHMT2 (Euchromatic histone-lysine N-methyltransferase 2) (Q96KQ7 whole entry): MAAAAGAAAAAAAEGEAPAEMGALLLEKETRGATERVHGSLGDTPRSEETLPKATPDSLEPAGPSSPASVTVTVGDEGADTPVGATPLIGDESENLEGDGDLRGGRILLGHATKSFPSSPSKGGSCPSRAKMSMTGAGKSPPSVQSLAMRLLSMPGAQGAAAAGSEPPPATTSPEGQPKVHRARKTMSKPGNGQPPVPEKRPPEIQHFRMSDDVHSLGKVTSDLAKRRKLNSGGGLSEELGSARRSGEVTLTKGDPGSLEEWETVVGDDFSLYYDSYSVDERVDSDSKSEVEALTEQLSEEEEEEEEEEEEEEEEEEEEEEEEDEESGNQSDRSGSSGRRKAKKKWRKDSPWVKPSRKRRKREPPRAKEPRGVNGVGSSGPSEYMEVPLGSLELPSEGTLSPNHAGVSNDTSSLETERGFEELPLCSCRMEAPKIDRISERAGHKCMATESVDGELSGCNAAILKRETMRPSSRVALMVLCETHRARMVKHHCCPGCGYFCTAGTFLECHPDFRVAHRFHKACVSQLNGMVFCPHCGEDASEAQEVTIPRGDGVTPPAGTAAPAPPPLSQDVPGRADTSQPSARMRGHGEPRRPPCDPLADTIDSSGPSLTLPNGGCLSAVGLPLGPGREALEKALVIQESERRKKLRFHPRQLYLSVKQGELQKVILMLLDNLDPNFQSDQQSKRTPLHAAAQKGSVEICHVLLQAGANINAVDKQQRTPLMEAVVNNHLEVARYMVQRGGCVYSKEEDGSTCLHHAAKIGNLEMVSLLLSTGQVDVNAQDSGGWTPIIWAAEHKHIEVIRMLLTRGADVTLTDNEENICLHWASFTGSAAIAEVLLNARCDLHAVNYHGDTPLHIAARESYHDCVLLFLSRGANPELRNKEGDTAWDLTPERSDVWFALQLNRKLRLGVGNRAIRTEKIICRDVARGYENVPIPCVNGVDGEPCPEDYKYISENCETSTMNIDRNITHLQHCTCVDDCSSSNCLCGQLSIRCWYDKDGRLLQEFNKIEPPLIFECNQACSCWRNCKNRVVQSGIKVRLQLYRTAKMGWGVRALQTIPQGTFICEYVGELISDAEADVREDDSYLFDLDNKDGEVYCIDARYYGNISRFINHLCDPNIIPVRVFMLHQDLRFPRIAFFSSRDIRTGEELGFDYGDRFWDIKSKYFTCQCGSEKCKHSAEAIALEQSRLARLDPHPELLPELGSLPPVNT

Structure (SMILES) | pIC50 [1] | pIC50 [2]
COc1cc2c(NCc3cccnc3)nc(N3CCCC3)nc2cc1C#CCCN1CCCC1 [Example 71, 6-methoxy-N-(pyridine-3-ylmethyl)-2-(pyrrolidine-1-yl)-7-(4-(pyrrolidine-1-yl)-1-butyne-1-yl)quinazoline-4-amine] | – | 6.00 to 7.00
COc1cc2c(NC3CC(C)(C)NC(C)(C)C3)nc(N3CCCC3)nc2cc1C#CCCN1CCCC1 [Example 73, 6-methoxy-2-(pyrrolidine-1-yl)-7-(4-(pyrrolidine-1-yl)-1-butyne-1-yl)-N-(2,2,6,6-tetramethylpiperidine-4-yl)quinazoline-4-amine] | – | > 7.00
COc1cc2c(NC3CCN(C4CC4)CC3)nc(N3CC[C@@H](F)C3)nc2cc1C#CCCN1CCCC1 [Example 74, (R)-N-(1-cyclopropylpiperidine-4-yl)-2-(3-fluoropyrrolidine-1-yl)-6-methoxy-7-(4-(pyrrolidine-1-yl)-1-butyne-1-yl)quinazoline-4-amine] | – | 6.00 to 7.00
COc1cc2c(NC3CCN(C4CC4)CC3)nc(N3CC[C@H](F)C3)nc2cc1C#CCCN1CCCC1 [Example 75, (S)-N-(1-cyclopropylpiperidine-4-yl)-2-(3-fluoropyrrolidine-1-yl)-6-methoxy-7-(4-(pyrrolidine-1-yl)-1-butyne-1-yl)quinazoline-4-amine] | – | > 7.00
COc1cc2c(NC3CCN(C4CC4)CC3)nc(N3CC[C@@H](F)C3)nc2cc1C#CCCN(C)C [Example 76, (R)-N-(1-cyclopropylpiperidine-4-yl)-7-(4-(dimethylamino)-1-butyne-1-yl)-2-(3-fluoropyrrolidine-1-yl)-6-methoxyquinazoline-4-amine] | – | 5.00 to 6.00
CCN1CCC(Nc2nc(N3CC[C@@H](F)C3)nc3cc(C#CCCN4CCCC4)c(OC)cc23)CC1 [Example 77, (R)-N-(1-ethylpiperidine-4-yl)-2-(3-fluoropyrrolidine-1-yl)-6-methoxy-7-(4-(pyrrolidine-1-yl)-1-butyne-1-yl)quinazoline-4-amine] | – | > 7.00
CCN1CCC(Nc2nc(N3CCCC3)nc3cc(C#CCCN4CC[C@H](F)C4)c(OC)cc23)CC1 [Example 78, (S)-N-(1-ethylpiperidine-4-yl)-7-(4-(3-fluoropyrrolidine-1-yl)-1-butyne-1-yl)-6-methoxy-2-(pyrrolidine-1-yl)quinazoline-4-amine] | – | > 7.00
COc1cc2c(NCCN(C)C)nc(N3CC[C@H](F)C3)nc2cc1C#CCCN1CCCC1 [Example 79, (S)-N1-(2-(3-fluoropyrrolidine-1-yl)-6-methoxy-7-(4-(pyrrolidine-1-yl)-1-butyne-1-yl)quinazoline-4-yl)-N2,N2-dimethylethane-1,2-diamine] | – | 6.00 to 7.00
COc1cc2c(NCCN(C)C)nc(N3CC[C@@H](F)C3)nc2cc1C#CCCN1CCCC1 [Example 80, (R)-N1-(2-(3-fluoropyrrolidine-1-yl)-6-methoxy-7-(4-(pyrrolidine-1-yl)-1-butyne-1-yl)quinazoline-4-yl)-N2,N2-dimethylethane-1,2-diamine] | – | 6.00 to 7.00
CNc1nc(N2CCCC2)nc2cc(C#CCCN3CCCC3)c(OC)cc12 [Example 81, 6-methoxy-N-methyl-2-(pyrrolidine-1-yl)-7-(4-(pyrrolidine-1-yl)-1-butyne-1-yl)quinazoline-4-amine] | – | 6.00 to 7.00
CCCN1CCC(Nc2nc(N(C)C)nc3cc(C#CCCN4CCCC4)c(OC)cc23)CC1 [Example 83, 6-methoxy-N2,N-dimethyl-N4-(1-propylpiperidine-4-yl)-7-(4-(pyrrolidine-1-yl)-1-butyne-1-yl)quinazoline-2,4-diamine] | – | > 7.00
CCCN1CCC(Nc2nc(N3CC[C@@H](F)C3)nc3cc(C#CCCN4CCCC4)c(OC)cc23)CC1 [Example 84, (R)-2-(3-fluoropyrrolidine-1-yl)-6-methoxy-N-(1-propylpiperidine-4-yl)-7-(4-(pyrrolidine-1-yl)-1-butyne-1-yl)quinazoline-4-amine] | – | > 7.00
COc1cc2c(NC3CCN(C(C)C)CC3)nc(N3CCCC3)nc2cc1/C=C/CCN1CCCC1 [Example 85, (E)-N-(1-isopropylpiperidine-4-yl)-6-methoxy-2-(pyrrolidine-1-yl)-7-(4-(pyrrolidine-1-yl)-1-butene-1-yl)quinazoline-4-amine] | – | > 7.00
COc1cc2c(NC3CCN(C(C)C)CC3)nc(N3CCCC3)nc2cc1/C=C/CCN(C)C [Example 86, (E)-7-(4-(dimethylamino)-1-butene-1-yl)-N-(1-isopropylpiperidine-4-yl)-6-methoxy-2-(pyrrolidine-1-yl)quinazoline-4-amine] | – | 6.00 to 7.00
COc1cc2c(NC3CCN(CCO)CC3)nc(N(C)C)nc2cc1C#CCCN1CCCC1 [Example 87, 2-(4-((2-(dimethylamino)-6-methoxy-7-(4-(pyrrolidine-1-yl)-1-butyne-1-yl)quinazoline-4-yl)amino)piperidine-1-yl) ethanol] | – | > 7.00
COc1cc2c(NC3CCN(C(C)C)CC3)nc(Nc3cnn(C)c3)nc2cc1C#CCCN1CCCC1 [Example 88, N4-(1-isopropylpiperidine-4-yl)-6-methoxy-N2-(1-methyl-1H-pyrazole-4-yl)-7-(4-(pyrrolidine-1-yl)-1-butyne-1-yl)quinazoline-2,4-diamine] | – | 6.00 to 7.00
COc1cc2c(NC3CCN(CCO)CC3)nc(N3CC[C@@H](F)C3)nc2cc1C#CCCN1CCCC1 [Example 89] | – | > 7.00

Results, then the molecule that gave them:

pIC50 [1] | pIC50 [2] | Structure (SMILES)
6.47 | > 7.00 | COc1cc2c(NC3CCN(C(C)C)CC3)nc(N(C)C)nc2cc1C#CCCN(C)C [Example 14]
6.52 | > 7.00 | COc1cc2c(NC3CCN(C(C)C)CC3)nc(N3CCCC3)nc2cc1C#CCCN1CCCC1 [Example 42, N-(1-isopropylpiperidine-4-yl)-6-methoxy-2-(pyrrolidine-1-yl)-7-(4-(pyrrolidine-1-yl)-1-butyne-1-yl)quinazoline-4-amine]
6.48 | > 7.00 | COc1cc2c(NC3CCN(C(C)C)CC3)nc(N(C)C)nc2cc1C#CCCN1CCCC1 [Example 49, N4-(1-isopropylpiperidine-4-yl)-6-methoxy-N2,N2-dimethyl-7-(4-(pyrrolidine-1-yl)-1-butyne-1-yl)quinazoline-2,4-diamine]
6.72 | > 7.00 | COc1cc2c(NC3CCN(C4CC4)CC3)nc(N3CCCN(C)CC3)nc2cc1C#CCCN1CCCC1 [Example 56, N-(1-cyclopropylpiperidine-4-yl)-6-methoxy-2-(4-methyl-1,4-diazepane-1-yl)-7-(4-(pyrrolidine-1-yl)-1-butyne-1-yl)quinazoline-4-amine]
– | > 7.00 | CCCN1CCC(Nc2nc(N3CCCCC3)nc3cc(C#CCCN4CCCC4)c(OC)cc23)CC1 [Example 67, 6-methoxy-2-(piperidine-1-yl)-N-(1-propylpiperidine-4-yl)-7-(4-(pyrrolidine-1-yl)-1-butyne-1-yl)quinazoline-4-amine]
– | > 7.00 | CCCN1CCC(Nc2nc(N3CCCC3)nc3cc(C#CCCN4CCCC4)c(OC)cc23)CC1 [Example 68, 6-methoxy-N-(1-propylpiperidine-4-yl)-2-(pyrrolidine-1-yl)-7-(4-(pyrrolidine-1-yl)-1-butyne-1-yl)quinazoline-4-amine]
– | > 7.00 | COc1cc2c(NC3CCN(CCO)CC3)nc(N3CCCCC3)nc2cc1C#CCCN1CCCC1 [Example 69, 2-(4-((6-methoxy-2-(piperidine-1-yl)-7-(4-(pyrrolidine-1-yl)-1-butyne-1-yl)quinazoline-4-yl)amino)piperidine-1-yl)ethanol]
– | > 7.00 | COc1cc2c(NC3CCN(CCO)CC3)nc(N3CCCC3)nc2cc1C#CCCN1CCCC1 [Example 70, 2-(4-((6-methoxy-2-(pyrrolidine-1-yl)-7-(4-(pyrrolidine-1-yl)-1-butyne-1-yl)quinazoline-4-yl)amino)piperidine-1-yl)ethanol]
– | > 7.00 | CCN1CCC(Nc2nc(N3CC[C@H](F)C3)nc3cc(C#CCCN4CCCC4)c(OC)cc23)CC1 [Example 72, (S)-N-(1-ethylpiperidine-4-yl)-2-(3-fluoropyrrolidine-1-yl)-6-methoxy-7-(4-(pyrrolidine-1-yl)-1-butyne-1-yl)quinazoline-4-amine]
